Experimental findings from patent US10323022B2, “Pyrrolidinyl urea, pyrrolidinyl thiourea and pyrrolidinyl guanidine compounds as TrkA kinase inhibitors” (Array BioPharma Inc., priority 2011, dated 2019) are described below.

Molecules are shown by their SMILES. Counter-ions that a name gives are not always drawn.

Sequence of TrkA (P04629 33-796): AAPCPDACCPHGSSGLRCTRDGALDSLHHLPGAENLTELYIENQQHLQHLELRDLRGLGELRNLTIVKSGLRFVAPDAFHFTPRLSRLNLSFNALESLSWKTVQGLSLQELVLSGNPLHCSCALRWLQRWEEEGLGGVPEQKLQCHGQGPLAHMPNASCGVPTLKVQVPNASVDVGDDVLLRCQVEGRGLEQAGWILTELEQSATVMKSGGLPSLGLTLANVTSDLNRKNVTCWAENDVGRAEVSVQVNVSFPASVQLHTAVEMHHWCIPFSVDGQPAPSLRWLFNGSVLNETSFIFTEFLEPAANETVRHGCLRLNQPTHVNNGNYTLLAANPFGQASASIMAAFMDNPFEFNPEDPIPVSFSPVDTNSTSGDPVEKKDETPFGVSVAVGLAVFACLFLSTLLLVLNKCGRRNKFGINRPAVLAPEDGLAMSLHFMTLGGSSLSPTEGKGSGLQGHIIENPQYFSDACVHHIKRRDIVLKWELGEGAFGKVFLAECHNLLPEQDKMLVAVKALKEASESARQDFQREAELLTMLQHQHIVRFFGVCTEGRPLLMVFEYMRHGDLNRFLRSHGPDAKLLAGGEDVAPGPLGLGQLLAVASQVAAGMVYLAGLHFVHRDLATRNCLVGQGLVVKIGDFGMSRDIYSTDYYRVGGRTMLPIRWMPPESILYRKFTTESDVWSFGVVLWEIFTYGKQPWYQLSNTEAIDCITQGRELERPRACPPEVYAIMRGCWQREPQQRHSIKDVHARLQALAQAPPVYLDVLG

The target of the experiment is TrkA (Homo sapiens (Human), UniProt P04629). The experiment is described as follows: TrkA Omnia Assay. The experiment is classed as biochemical. The settings on record: averaged IC50; 20 nM enzyme, 500 μM ATP, 10 μM peptide substrate. The procedure, abridged:
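Continuous fluorescent kinase read-out (ex 360 nm, em 485 nm) over 70 min, with initial rates fitted to 4- or 5-parameter logistic curves for IC50. Final conditions: 500 μM ATP, 10 μM Omnia Tyr Peptide #4, 20 nM TrkA, MOPS pH 7.5 buffer with MgCl2 and Triton X-100; enzyme and compound preincubated 10 min at ambient temperature.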
In turn, `COCCN1C[C@@H](NC(=O)Nc2c(C)c(-c3cn(C)cn3)nn2-c2ccccc2)[C@H](c2ccc(F)c(F)c2)C1` [Example 608, 1-((3S,4R)-4-(3,4-difluorophenyl)-1-(2-methoxyethyl)pyrrolidin-3-yl)-3-(4-methyl-3-(1-methyl-1H-imidazol-4-yl)-1-phenyl-1H-pyrazol-5-yl)urea] gave an IC50 of under 100 nM.
Turning to `COCCN1C[C@@H](NC(=O)Nc2c(C)c(=O)[nH]n2-c2ccccc2)[C@H](c2cc(F)cc(F)c2)C1` [Example 611, 1-((3S,4R)-4-(3,5-difluorophenyl)-1-(2-methoxyethyl)pyrrolidin-3-yl)-3-(4-methyl-5-oxo-2-phenyl-2,5-dihydro-1H-pyrazol-3-yl)urea], the IC50 is under 100 nM.
Under `COCCN1C[C@@H](NC(=O)Nc2c(C)c(=O)[nH]n2-c2ccccc2)[C@H](c2cc(F)c(F)c(F)c2)C1` [Example 612, 1-((3S,4R)-1-(2-methoxyethyl)-4-(3,4,5-trifluorophenyl)pyrrolidin-3-yl)-3-(4-methyl-5-oxo-2-phenyl-2,5-dihydro-1H-pyrazol-3-yl)urea] stands under 100 nM.
The compound `COCCN1C[C@@H](NC(=O)Nc2c(C)c(=O)[nH]n2-c2ccccc2)[C@H](c2cccc(F)c2)C1` [Example 613, 1-((3S,4R)-4-(3-fluorophenyl)-1-(2-methoxyethyl)pyrrolidin-3-yl)-3-(4-methyl-5-oxo-2-phenyl-2,5-dihydro-1H-pyrazol-3-yl)urea] had an IC50 of under 100 nM.
On to `COCCN1C[C@@H](NC(=O)Nc2c(C#N)c(OC)nn2-c2ccccc2)[C@H](c2ccc(F)c(F)c2)C1` [Example 615, 1-(4-cyano-3-methoxy-1-phenyl-1H-pyrazol-5-yl)-3-((3S,4R)-4-(3,4-difluorophenyl)-1-(2-methoxyethyl)pyrrolidin-3-yl)urea], for which the IC50 is under 100 nM.
The value for `CCc1nn(-c2ccccc2)c(NC(=O)N[C@@H]2CN(CCOC)C[C@H]2c2ccc(F)c(F)c2)c1C#N` [Example 616, 1-(4-cyano-3-ethyl-1-phenyl-1H-pyrazol-5-yl)-3-((3S,4R)-4-(3,4-difluorophenyl)-1-(2-methoxyethyl)pyrrolidin-3-yl)urea.] was under 100 nM; that for `COCCN1C[C@@H](NC(=O)Nc2c(C#N)c(C(F)(F)F)nn2-c2ccccc2)[C@H](c2ccc(F)c(F)c2)C1` [Example 617, 1-(4-cyano-1-phenyl-3-(trifluoromethyl)-1H-pyrazol-5-yl)-3-((3S,4R)-4-(3,4-difluorophenyl)-1-(2-methoxyethyl)pyrrolidin-3-yl)urea] was under 100 nM; that for `COCCN1C[C@@H](NC(=O)Nc2c(C#N)c(=O)[nH]n2-c2ccccc2)[C@H](c2ccc(F)c(F)c2)C1` [Example 618, 1-(4-cyano-5-oxo-2-phenyl-2,5-dihydro-1H-pyrazol-3-yl)-3-((3S,4R)-4-(3,4-difluorophenyl)-1-(2-methoxyethyl)pyrrolidin-3-yl)urea] was under 100 nM.
Consider `COCCN1C[C@@H](NC(=O)Nc2c(C(N)=O)c(OC)nn2-c2ccccc2)[C@H](c2ccc(F)c(F)c2)C1` [Example 619, 5-(3-((3S,4R)-4-(3,4-difluorophenyl)-1-(2-methoxyethyl)pyrrolidin-3-yl)ureido)-3-methoxy-1-phenyl-1H-pyrazole-4-carboxamide], for which the IC50 was under 100 nM.
`COCCN1C[C@@H](NC(=O)Nc2c(C(N)=O)c(C)nn2-c2ccccc2)[C@H](c2ccc(F)c(F)c2)C1` [Example 620, 5-(3-((3S,4R)-4-(3,4-difluoro-phenyl)-1-(2-methoxyethyl)pyrrolidin-3-yl)ureido)-3-methyl-1-phenyl-1H-pyrazole-4-carboxamide] gave a half-inhibitory concentration (IC50) of under 100 nM.
Compound `CCc1nn(-c2ccccc2)c(NC(=O)N[C@@H]2CN(CCOC)C[C@H]2c2ccc(F)c(F)c2)c1C(N)=O` [Example 621, 5-(3-((3S,4R)-4-(3,4-difluorophenyl)-1-(2-methoxyethyl)pyrrolidin-3-yl)ureido)-3-ethyl-1-phenyl-1H-pyrazole-4-carboxamide] yielded an IC50 of under 100 nM.
For `COCCN1C[C@@H](NC(=O)Nc2c(C(N)=O)c(C(F)(F)F)nn2-c2ccccc2)[C@H](c2ccc(F)c(F)c2)C1` [Example 622, 5-(3-((3S,4R)-4-(3,4-difluorophenyl)-1-(2-methoxyethyl)pyrrolidin-3-yl)ureido)-1-phenyl-3-(trifluoromethyl)-1H-pyrazole-4-carboxamide], the IC50 was under 100 nM.
In turn, `COCCN1C[C@@H](NC(=O)Nc2c(C(N)=O)c(C)nn2-c2ccccc2)[C@H](c2cc(F)cc(F)c2)C1` [Example 626, 5-(3-((3S,4R)-4-(3,5-difluorophenyl)-1-(2-methoxyethyl)pyrrolidin-3-yl)ureido)-3-methyl-1-phenyl-1H-pyrazole-4-carboxamide] yielded an IC50 of under 100 nM.
As to `COCCN1C[C@@H](NC(=O)Nc2c(C(N)=O)cnn2-c2ccccc2)[C@H](c2ccc(F)c(F)c2)C1` [Example 627, 5-(3-((3S,4R)-4-(3,4-difluorophenyl)-1-(2-methoxyethyl)pyrrolidin-3-yl)ureido)-1-phenyl-1H-pyrazole-4-carboxamide], the IC50 was under 100 nM.
Regarding `COCCN1C[C@@H](NC(=O)Nc2c(C(N)=O)c(C(F)F)nn2-c2ccccc2)[C@H](c2ccc(F)c(F)c2)C1` [Example 628, 3-(difluoromethyl)-5-(3-((3S,4R)-4-(3,4-difluorophenyl)-1-(2-methoxyethyl)pyrrolidin-3-yl)ureido)-1-phenyl-1H-pyrazole-4-carboxamide], the IC50 is under 100 nM.
`COCCN1C[C@@H](NC(=N)Nc2c(Br)c(C)nn2-c2ccccc2)[C@H](c2ccc(F)c(F)c2)C1` [Example 629, 1-(4-bromo-3-methyl-1-phenyl-1H-pyrazol-5-yl)-3-((3S,4R)-4-(3,4-difluorophenyl)-1-(2-methoxyethyl)pyrrolidin-3-yl)guanidine dihydrochloride] gave an IC50 of 1000 to 10000 nM.
In turn, `COCCN1C[C@@H](NC(=S)Nc2c(Br)c(C)nn2-c2ccccc2)[C@H](c2ccc(F)c(F)c2)C1` [Example 630, 1-(4-bromo-3-methyl-1-phenyl-1H-pyrazol-5-yl)-3-((3S,4R)-4-(3,4-difluorophenyl)-1-(2-methoxyethyl)pyrrolidin-3-yl)thiourea] showed an IC50 of under 100 nM.
On to `COCCN1C[C@@H](NC(=S)Nc2c(C)c(-c3ccc(=O)n(C)c3)nn2-c2ccccc2)[C@H](c2ccc(F)c(F)c2)C1` [Example 631, 1-((3S,4R)-4-(3,4-difluorophenyl)-1-(2-methoxyethyl)pyrrolidin-3-yl)-3-(4-methyl-3-(1-methyl-6-oxo-1,6-dihydropyridin-3-yl)-1-phenyl-1H-pyrazol-5-yl)thiourea], for which the IC50 was under 100 nM.
Compound `COCCN1C[C@@H](NC(=S)Nc2c(C)c(-c3cnn(C)c3)nn2-c2ccccc2)[C@H](c2ccc(F)c(F)c2)C1` [Example 632, 1-((3S,4R)-4-(3,4-difluorophenyl)-1-(2-methoxyethyl)pyrrolidin-3-yl)-3-(1′,4-dimethyl-1-phenyl-1H,1′H-3,4′-bipyrazol-5-yl)thiourea] gave an IC50 of under 100 nM.
`COCCN1C[C@@H](NC(=S)Nc2c(C)c(-c3cnn(C)c3)nn2-c2ccccc2)[C@H](c2ccc(F)cc2)C1` [Example 633, 1-((3S,4R)-4-(4-fluorophenyl)-1-(2-methoxyethyl)pyrrolidin-3-yl)-3-(1′,4-dimethyl-1-phenyl-1H, 1′H-3,4′-bipyrazol-5-yl)thiourea]: the IC50 was under 100 nM.
Under `COCCN1CC(c2ccccc2)[C@H](NC(=O)Nc2c(-c3ccccc3)nn3ccccc23)C1` (some centres unmarked) [Example 634] stands under 100 nM.
For the compound `COCCN1C[C@@H](NC(=O)Nc2c(-c3ccccc3)nn3ccccc23)[C@H](c2ccc(F)c(F)c2)C1` [Example 635, 1-((3S,4R)-4-(3,4-difluorophenyl)-1-(2-methoxyethyl)pyrrolidin-3-yl)-3-(2-phenylpyrazolo[1,5-a]pyridin-3-yl)urea], the IC50 is under 100 nM.
Compound `COCCN1CC(c2ccccc2)[C@H](NC(=O)Nc2cnn3ccccc23)C1` (some centres unmarked) [Example 636] displayed an IC50 of 100 to 1000 nM.
The value for `COCCN1C[C@@H](NC(=O)Nc2cnn3ccccc23)[C@H](c2ccc(F)c(F)c2)C1` [Example 637, 1-((3S,4R)-4-(3,4-difluorophenyl)-1-(2-methoxyethyl)pyrrolidin-3-yl)-3-(pyrazolo[1,5-a]pyridin-3-yl)urea] was under 100 nM; that for `COCCN1C[C@@H](NC(=O)Nc2c(-c3ccccc3)nn(-c3cnccn3)c2C)[C@H](c2ccc(F)c(F)c2)C1` [Example 638, 1-((3S,4R)-4-(3,4-difluorophenyl)-1-(2-methoxyethyl)pyrrolidin-3-yl)-3-(5-methyl-3-phenyl-1-(pyrazin-2-yl)-1H-pyrazol-4-yl)urea] was under 100 nM.
`COCCN1C[C@@H](NC(=O)Nc2c(-c3ccccc3)nn(C)c2C)[C@H](c2ccc(F)c(F)c2)C1` [Example 639, 1-((3S,4R)-4-(3,4-difluorophenyl)-1-(2-methoxyethyl)pyrrolidin-3-yl)-3-(1,5-dimethyl-3-phenyl-1H-pyrazol-4-yl)urea] came in with an IC50 of under 100 nM.
With `COCCN1C[C@@H](NC(=O)Nc2c(-c3ccccc3)nn(C)c2C)[C@H](c2cc(F)cc(F)c2)C1` [Example 640, 1-((3S,4R)-4-(3,5-difluorophenyl)-1-(2-methoxyethyl)pyrrolidin-3-yl)-3-(1,5-dimethyl-3-phenyl-1H-pyrazol-4-yl)urea], the IC50 was under 100 nM.
`COCCN1C[C@@H](NC(=O)Nc2c(-c3ccccc3)nn(C(C)C)c2C)[C@H](c2ccc(F)c(F)c2)C1` [Example 641, 1-((3S,4R)-4-(3,4-difluorophenyl)-1-(2-methoxyethyl)pyrrolidin-3-yl)-3-(1-isopropyl-5-methyl-3-phenyl-1H-pyrazol-4-yl)urea] came in with an IC50 of 100 to 1000 nM.
As to `COCCN1C[C@@H](NC(=O)Nc2c(-c3ccccc3)nn(C(C)C)c2C)[C@H](c2cc(F)cc(F)c2)C1` [Example 642, 1-((3S,4R)-4-(3,5-difluorophenyl)-1-(2-methoxyethyl)pyrrolidin-3-yl)-3-(1-isopropyl-5-methyl-3-phenyl-1H-pyrazol-4-yl)urea], the IC50 lay within 100 to 1000 nM.
